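Test compounds were applied to cells in 96-well plates for 48 hours at 5 doses. TGI denotes the concentration required for complete inhibition of growth.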
Key:
Assay in all cases: NCI-60 cell line screen, 48 h
A498 renal = test system: A498 renal
A549 NSCLC = test system: A549 NSCLC
CAKI-1 renal = test system: CAKI-1 renal
CCRF-CEM leukemia = test system: CCRF-CEM leukemia
COLO 205 colon = test system: COLO 205 colon
HCC-2998 colon = test system: HCC-2998 colon
HL-60(TB) leukemia = test system: HL-60(TB) leukemia
LOX IMVI melanoma = test system: LOX IMVI melanoma
M14 melanoma = test system: M14 melanoma
MDA-N = test system: MDA-N
MOLT-4 leukemia = test system: MOLT-4 leukemia
NCI-H522 lung = test system: NCI-H522 lung
OVCAR-5 ovarian = test system: OVCAR-5 ovarian
OVCAR-8 ovarian = test system: OVCAR-8 ovarian
SF-539 CNS = test system: SF-539 CNS
SNB-75 CNS = test system: SNB-75 CNS
UACC-62 melanoma = test system: UACC-62 melanoma
UO-31 renal = test system: UO-31 renal
HCT-15 colon = test system: HCT-15 colon

Measured: TGI

Cn1c(=O)c2c(=O)cc(N)[nH]c2n(C)c1=O
76.8 µM: CAKI-1 renal
not listed: HCT-15 colon
> 100 µM: all other assays above

CN1CCc2c(sc3ncn(Nc4ccc(F)cc4)c(=N)c23)C1
not listed: COLO 205 colon | HCC-2998 colon | UO-31 renal
> 100 µM: all other assays above

O=C(CCCn1ccnc1[N+](=O)[O-])NCCn1cnc([N+](=O)[O-])n1
not listed: HCC-2998 colon
> 100 µM: all other assays above

c1cc(CSc2ncnc3nc[nH]c23)ccn1
> 100 µM: all assays above

O=C(/C=C/c1cccc(Br)c1)N1CCN(CCOC(c2ccccc2)c2ccccc2)CC1
39.1 µM: SF-539 CNS
65.8 µM: UO-31 renal
39.8 µM: CCRF-CEM leukemia
54.8 µM: LOX IMVI melanoma
46.6 µM: HL-60(TB) leukemia
57.4 µM: COLO 205 colon
30.8 µM: MOLT-4 leukemia
> 100 µM: all other assays above

C[C@@H]1CC[C@@]2(C)[C@H](C)/C(=C\COC(=O)/C=C/c3ccc(O)c(O)c3)CC[C@@]12C
15 µM: CAKI-1 renal
16.1 µM: HCT-15 colon
13.4 µM: COLO 205 colon | HL-60(TB) leukemia
35 µM: OVCAR-5 ovarian
16.2 µM: SF-539 CNS
20 µM: HCC-2998 colon
35.8 µM: A549 NSCLC
24.1 µM: OVCAR-8 ovarian
26.1 µM: M14 melanoma
14.3 µM: MDA-N
3.12 µM: NCI-H522 lung
28 µM: SNB-75 CNS | UO-31 renal
8.9 µM: MOLT-4 leukemia
25.8 µM: A498 renal
22.1 µM: UACC-62 melanoma
21.5 µM: LOX IMVI melanoma

O=C1c2ccccc2C(=O)N1NC1=NCCN1
not listed: SNB-75 CNS | UO-31 renal
> 100 µM: all other assays above

CC1CC(=O)Nc2ccccc2N1C(=O)C1CC1 (stereo unspecified)
not listed: SNB-75 CNS | UACC-62 melanoma
> 100 µM: all other assays above

C=C(C)[C@H]1CC(=O)[C@@]2(C)C[C@H]3O[C@]3(C)CC/C=C(\C)CC[C@H]12
44.4 µM: COLO 205 colon
75.2 µM: HL-60(TB) leukemia
60.9 µM: MOLT-4 leukemia
73.9 µM: A498 renal
74.1 µM: UACC-62 melanoma
73 µM: CAKI-1 renal
not listed: M14 melanoma
> 100 µM: all other assays above

COC(=O)C1Cc2cc3c(cc2C1)CCC3
not listed: NCI-H522 lung
> 100 µM: all other assays above

c1ccc(/C(=N/Nc2ccccn2)c2cccnn2)cc1
> 69.8 µM: A549 NSCLC
> 41.6 µM: CAKI-1 renal
32.7 µM: SNB-75 CNS
27.1 µM: MOLT-4 leukemia
18.9 µM: OVCAR-8 ovarian
18.5 µM: M14 melanoma
> 52.6 µM: UACC-62 melanoma
71.3 µM: HL-60(TB) leukemia
24.9 µM: SF-539 CNS
6.02 µM: UO-31 renal
4.93 µM: NCI-H522 lung
not listed: CCRF-CEM leukemia
> 100 µM: all other assays above

CC(C)=CCc1cc(/C=C/C(=O)O)cc(CC=C(C)C)c1O
not listed: HCC-2998 colon | SNB-75 CNS
> 100 µM: all other assays above

O=C1CN(c2ccccc2)C(=O)CN1NCNN1CC(=O)N(c2ccccc2)CC1=O
not listed: LOX IMVI melanoma
> 100 µM: all other assays above

Source: PubChem BioAssay (NCI)
